{"source": "paper PMC8674378", "about": "(Journal of the American Chemical Society, 2021)", "key": {"[1]": {"target": "ThAHAS", "assay": "AHAS enzyme inhibition assay", "format": "biochemical, Trichoderma afroharzianum t-22"}, "[2]": {"system": "ThAHAS^M", "assay": "AHAS enzyme inhibition assay", "format": "biochemical, Trichoderma afroharzianum t-22", "settings": "for IC50: [E]=0.5 μM"}, "[3]": {"target": "FuoAHAS (Fusarium oxysporum, UniProt X0CFW6)", "assay": "AHAS enzyme inhibition assay", "format": "biochemical, F. oxysporum NRRL 32931"}, "[4]": {"target": "T1, ScsAHAS (Sclerotinia sclerotiorum, UniProt A7EMK2)", "T1 sequence (A7EMK2 30-699)": "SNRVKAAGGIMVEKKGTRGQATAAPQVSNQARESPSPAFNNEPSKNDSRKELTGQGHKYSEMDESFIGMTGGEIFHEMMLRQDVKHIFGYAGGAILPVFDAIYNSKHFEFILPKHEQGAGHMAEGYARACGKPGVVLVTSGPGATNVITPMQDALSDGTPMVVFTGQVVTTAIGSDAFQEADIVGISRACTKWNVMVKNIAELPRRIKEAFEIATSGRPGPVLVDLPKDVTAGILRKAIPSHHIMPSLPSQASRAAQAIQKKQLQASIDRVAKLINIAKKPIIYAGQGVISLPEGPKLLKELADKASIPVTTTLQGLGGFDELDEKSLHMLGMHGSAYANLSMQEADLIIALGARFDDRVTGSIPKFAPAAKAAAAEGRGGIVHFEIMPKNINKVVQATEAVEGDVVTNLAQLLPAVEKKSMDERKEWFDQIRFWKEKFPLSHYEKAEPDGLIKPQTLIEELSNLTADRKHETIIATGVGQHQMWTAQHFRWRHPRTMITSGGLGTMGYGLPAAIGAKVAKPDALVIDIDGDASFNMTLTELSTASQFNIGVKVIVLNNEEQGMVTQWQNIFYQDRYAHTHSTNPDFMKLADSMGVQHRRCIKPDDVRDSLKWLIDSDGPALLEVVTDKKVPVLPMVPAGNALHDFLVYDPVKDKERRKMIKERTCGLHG", "assay": "AHAS enzyme inhibition assay", "format": "biochemical, S. sclerotiorum 1980 UF-70"}, "[5]": {"system": "S. cerevisiae BJ5464-NpgA", "assay": "Yeast growth inhibition in Ile and Val dropout medium", "format": "cell-based", "settings": "parent yeast strain"}, "[6]": {"system": "S. cerevisiae Δilv2 strain expressing AtAHAS", "assay": "Yeast growth inhibition in Ile and Val dropout medium", "format": "cell-based", "settings": "Δilv2 complemented with AtAHAS"}, "[7]": {"system": "S. cerevisiae Δilv2 strain expressing ThAHAS", "assay": "Yeast growth inhibition in Ile and Val dropout medium", "format": "cell-based", "settings": "Δilv2 complemented with ThAHAS"}, "[8]": {"system": "S. cerevisiae Δilv2 strain expressing ThAHAS^M", "assay": "Yeast growth inhibition in Ile and Val dropout medium", "format": "cell-based", "settings": "Δilv2 complemented with ThAHAS^M"}, "[9]": {"target": "CalAHAS", "settings": "cited from earlier work"}, "[10]": {"target": "T2, AtAHAS (Arabidopsis thaliana, UniProt P17597)", "T2 sequence (P17597 56-670)": "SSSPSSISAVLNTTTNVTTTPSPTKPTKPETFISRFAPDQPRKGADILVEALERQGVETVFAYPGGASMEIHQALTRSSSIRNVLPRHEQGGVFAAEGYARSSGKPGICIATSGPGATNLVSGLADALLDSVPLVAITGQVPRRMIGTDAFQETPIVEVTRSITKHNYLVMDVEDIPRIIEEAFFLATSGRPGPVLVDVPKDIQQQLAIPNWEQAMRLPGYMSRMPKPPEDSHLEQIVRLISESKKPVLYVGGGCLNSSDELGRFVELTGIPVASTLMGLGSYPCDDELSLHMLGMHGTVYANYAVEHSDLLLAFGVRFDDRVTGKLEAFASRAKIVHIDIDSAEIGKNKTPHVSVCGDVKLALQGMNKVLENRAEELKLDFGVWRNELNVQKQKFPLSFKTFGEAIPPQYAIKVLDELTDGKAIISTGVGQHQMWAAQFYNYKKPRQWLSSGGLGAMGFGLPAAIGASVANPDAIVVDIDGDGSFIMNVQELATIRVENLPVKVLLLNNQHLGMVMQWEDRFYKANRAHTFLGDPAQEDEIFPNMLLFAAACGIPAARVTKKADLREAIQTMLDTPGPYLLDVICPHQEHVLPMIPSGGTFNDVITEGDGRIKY", "assay": "AHAS enzyme inhibition assay", "format": "biochemical"}, "[11]": {"target": "SceAHAS (Saccharomyces cerevisiae, UniProt P07342)", "sequence (P07342 91-687)": "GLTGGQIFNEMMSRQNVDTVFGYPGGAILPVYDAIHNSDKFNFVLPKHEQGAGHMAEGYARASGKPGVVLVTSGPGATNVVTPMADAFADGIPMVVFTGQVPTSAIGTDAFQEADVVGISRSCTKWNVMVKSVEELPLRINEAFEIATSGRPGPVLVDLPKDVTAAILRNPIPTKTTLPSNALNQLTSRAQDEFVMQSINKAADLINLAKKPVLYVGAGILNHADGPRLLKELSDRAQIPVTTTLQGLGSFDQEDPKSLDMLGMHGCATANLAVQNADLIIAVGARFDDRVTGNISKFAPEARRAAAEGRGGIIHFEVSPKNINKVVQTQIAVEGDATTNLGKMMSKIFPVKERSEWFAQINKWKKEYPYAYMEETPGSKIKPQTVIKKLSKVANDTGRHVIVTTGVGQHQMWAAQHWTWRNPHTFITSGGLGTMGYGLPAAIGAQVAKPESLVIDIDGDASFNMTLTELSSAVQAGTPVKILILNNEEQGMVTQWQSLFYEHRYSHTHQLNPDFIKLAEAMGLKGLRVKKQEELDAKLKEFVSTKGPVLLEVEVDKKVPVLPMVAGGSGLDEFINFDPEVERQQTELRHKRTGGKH", "assay": "biochemical"}, "[12]": {"target": "(UniProt Z9DR95LUB2)", "assay": "AHAS enzyme inhibition assay", "format": "biochemical, Trichoderma afroharzianum t-22"}, "[13]": {"target": "T3, ThAHAS K247A (Trichoderma afroharzianum, UniProt A0ABF7PL51, K247A)", "T3 sequence (A0ABF7PL51 53-689 K247A)": "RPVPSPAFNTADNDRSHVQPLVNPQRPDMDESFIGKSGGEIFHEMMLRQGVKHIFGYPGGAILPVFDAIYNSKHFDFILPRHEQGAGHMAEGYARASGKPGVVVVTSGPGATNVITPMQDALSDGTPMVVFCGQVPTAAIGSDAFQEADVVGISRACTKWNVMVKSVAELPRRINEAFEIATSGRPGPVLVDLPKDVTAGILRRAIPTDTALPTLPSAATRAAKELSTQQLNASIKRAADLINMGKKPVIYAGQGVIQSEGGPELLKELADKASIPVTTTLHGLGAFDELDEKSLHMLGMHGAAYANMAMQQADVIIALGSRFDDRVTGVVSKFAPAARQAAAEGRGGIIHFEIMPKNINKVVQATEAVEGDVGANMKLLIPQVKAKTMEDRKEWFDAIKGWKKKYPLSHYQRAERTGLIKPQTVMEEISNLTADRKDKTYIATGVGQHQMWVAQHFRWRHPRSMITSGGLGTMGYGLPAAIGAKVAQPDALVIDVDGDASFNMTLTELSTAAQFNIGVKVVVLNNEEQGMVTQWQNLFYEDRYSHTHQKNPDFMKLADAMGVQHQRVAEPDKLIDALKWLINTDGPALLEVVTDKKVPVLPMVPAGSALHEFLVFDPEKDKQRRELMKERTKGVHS", "assay": "AHAS enzyme inhibition assay, K247A mutant", "format": "biochemical, Trichoderma afroharzianum t-22"}, "[14]": {"system": "S. cerevisiae Δilv2 strain with AHAS complementation", "format": "cell-based", "settings": "under assay concentrations, even in Ile and Val supplemented growth media"}, "[15]": {"system": "F. oxysporum", "assay": "Antifungal resazurin assay", "format": "cell-based"}, "[16]": {"system": "Sclerotinia sclerotiorum", "settings": "plant pathogenic fungus; cited from earlier work"}, "[17]": {"system": "Rhizoctonia solani", "settings": "plant pathogenic fungus; cited from earlier work"}, "[18]": {"system": "soybeans", "settings": "cited from earlier work"}, "[19]": {"system": "canola seedlings", "settings": "higher (10–100 μg) doses, petri dishes; cited from earlier work"}}}
{"smiles": "COC(=O)c1ccccc1S(=O)(=O)NC(=O)Nc1nc(C)cc(C)n1", "note": "[SM, sulfometuron methyl, reference compound]", "values": [{"measurement": "IC50", "setting": "[1]", "result": "~0.35", "unit": "µM"}, {"measurement": "inhibition of ThAHAS^M", "setting": "[2]; even at elevated concentration (100 μM)", "result": "no inhibition"}, {"measurement": "sensitivity of FuoAHAS", "setting": "[3]; in vitro assay conditions", "result": "completely insensitive"}, {"measurement": "sensitivity of ScsAHAS", "setting": "[4]; in vitro assay conditions", "result": "completely insensitive"}, {"measurement": "growth inhibition", "setting": "[5]", "result": "potently inhibited"}, {"measurement": "growth inhibition", "setting": "[6]", "result": "potently inhibited"}, {"measurement": "growth inhibition", "setting": "[7]", "result": "potently inhibited"}, {"measurement": "growth inhibition", "setting": "[8]", "result": "minimal sensitivity"}]}
{"smiles": "COc1cc(OC)n2nc(S(=O)(=O)Nc3c(Cl)ccc(C)c3Cl)nc2n1", "note": "[MT, metosulam]", "values": [{"measurement": "Ki", "setting": "[9]", "result": "low nanomolar"}]}
{"smiles": "CCCC=CC=CC(=O)C1=C(O)C(CC(O)(C(=O)O)C(C)C)N(C)C1=O", "note": "(stereo not shown) [HA, harzianic acid]", "values": [{"measurement": "inhibition of plant AtAHAS", "setting": "[10]", "result": "No inhibition"}, {"measurement": "Ki", "setting": "[11]", "result": "~83", "unit": "µM"}, {"measurement": "Ki", "setting": "[12]", "result": 6.65, "unit": "µM"}, {"measurement": "preferential binding, fold lower in Ki", "setting": "[1]; filamentous fungal AHAS over yeast SceAHAS", "result": "> 10", "unit": "fold"}, {"measurement": "Ki", "setting": "[2]", "result": 3.39, "unit": "µM"}, {"measurement": "IC50", "setting": "[2]", "result": 20, "unit": "µM"}, {"measurement": "IC50", "setting": "[13]", "result": 162, "unit": "µM"}, {"measurement": "fold increase in IC50 by K247A mutation", "setting": "[13]; K247A versus ThAHAS", "result": 4, "unit": "fold"}, {"measurement": "Ki", "setting": "[3]", "result": 14, "unit": "µM"}, {"measurement": "Ki", "setting": "[4]", "result": 11, "unit": "µM"}, {"measurement": "toxicity towards yeast", "setting": "[14]", "result": "general toxicity"}, {"measurement": "IC50", "setting": "[15]; Fusarium oxysporum, 48 h, read-out: IC50 of growth inhibition", "result": "~26", "unit": "µg/mL"}, {"measurement": "inhibition of growth", "setting": "[15]; grown in the presence of BCAAs (Leu, Ile and Val), RPMI 1640, 48h", "result": "inhibition of growth was only observed at very high concentrations"}, {"measurement": "antifungal activity", "setting": "[16]", "result": "antifungal activity"}, {"measurement": "antifungal activity", "setting": "[17]", "result": "antifungal activity"}, {"measurement": "increase of production of soybean pods and seeds", "setting": "[18]; field conditions", "result": "5–10%"}, {"measurement": "improvement of stem lengths", "setting": "[18]; soybeans, greenhouse conditions", "result": "> 40", "unit": "%"}, {"measurement": "effect on growth of canola seedlings", "setting": "[19]", "result": "growth inhibition"}]}
{"smiles": "CCCC=CC=CC(=O)C1=C(O)C(CC(O)(C(=O)O)C(C)C)NC1=O", "note": "(stereo not shown) [compound 5, demethylharzianic acid]", "values": [{"measurement": "IC50", "setting": "[2]", "result": 37, "unit": "µM"}]}
